Laboratory results taken from the supplement of paper PMC11451515.

Columns and labels:
Conditions in all cases: 48 h
[1] = test system: SEM cells; assay: cell viability relative to DMSO control; higher = less cytotoxic
Outline: (§1)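 Before seeding, each leukemia line was adapted for at least four passages in each medium. NOMO1 or SEM cells (500 cells/well) and P12-Ichikawa cells (1000 cells/well) went into 1536-well plates at 5 μl, then received library compounds in DMSO by pin dosing across 11 threefold concentrations, 47 μM to 0.79 nM. Readout was CellTiter-Glo One luminescence after 48 h at 37°C, and viability is given as a per-plate percentage of DMSO wells, with cell-free wells as background.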

[2] = test system: NOMO1; assay: as above
Outline: as §1

[3] = test system: P12-Ichikawa; assay: as above
Outline: as §1

[4] = test system: NOMO1; assay: AUC of viability dose-response curve (% viability x log10 dose units); higher = less sensitive
Outline: (§2)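 Medium-adapted leukemia cells in 1536-well plates, at 500 or 1000 cells/well, were incubated for 48 h at 37°C with library compounds in DMSO at 11 threefold doses from 47 μM to 0.79 nM. CellTiter-Glo One luminescence normalised per plate to DMSO and cell-free wells was fitted with a four-parameter log-logistic model over log10 doses. Area under the curve was integrated from this fit by trapezoidal rule, with curves beyond full viability scaled and failed quality-control curves removed.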

[5] = test system: P12-Ichikawa; assay: as above
Outline: as §2

COc1ccc2c(OCc3nnc4ccc(-c5ccccc5)nn34)ccnc2c1
cell viability [%]
Conditions	[1]	[2]	[3]
HPLM + 10% dialyzed FBS, 0.000781 µM	106	94.4	101
HPLM + 10% dialyzed FBS, 0.00234 µM	101	98.9	116
HPLM + 10% dialyzed FBS, 0.00702 µM	101	86.7	106
HPLM + 10% dialyzed FBS, 0.0211 µM	107	92.8	104
HPLM + 10% dialyzed FBS, 0.0632 µM	120	90.2	104
HPLM + 10% dialyzed FBS, 0.19 µM	92.9	93.9	97.5
HPLM + 10% dialyzed FBS, 0.569 µM	107	104	104
HPLM + 10% dialyzed FBS, 1.71 µM	102	83.9	95.9
HPLM + 10% dialyzed FBS, 5.12 µM	97.4	94	103
HPLM + 10% dialyzed FBS, 15.4 µM	75.9	104	103
HPLM + 10% dialyzed FBS, 46.1 µM	15.6	65.2	28.1
RPMI 5 mM glucose + 10% FBS, 0.000781 µM	68.7	113	115
RPMI 5 mM glucose + 10% FBS, 0.00234 µM	63.1	123	117
RPMI 5 mM glucose + 10% FBS, 0.00702 µM	71.5	116	123
RPMI 5 mM glucose + 10% FBS, 0.0211 µM	82.1	116	122
RPMI 5 mM glucose + 10% FBS, 0.0632 µM	84	117	114
RPMI 5 mM glucose + 10% FBS, 0.19 µM	78.6	114	106
RPMI 5 mM glucose + 10% FBS, 0.569 µM	105	117	112
RPMI 5 mM glucose + 10% FBS, 1.71 µM	78.2	116	117
RPMI 5 mM glucose + 10% FBS, 5.12 µM	60.8	112	106
RPMI 5 mM glucose + 10% FBS, 15.4 µM	25.6	113	124
RPMI 5 mM glucose + 10% FBS, 46.1 µM	1.49	116	122
RPMI 5 mM glucose + 10% dialyzed FBS, 0.000781 µM	94	113	123
RPMI 5 mM glucose + 10% dialyzed FBS, 0.00234 µM	96.8	123	118
RPMI 5 mM glucose + 10% dialyzed FBS, 0.00702 µM	90.5	133	105
RPMI 5 mM glucose + 10% dialyzed FBS, 0.0211 µM	111	119	111
RPMI 5 mM glucose + 10% dialyzed FBS, 0.0632 µM	115	129	105
RPMI 5 mM glucose + 10% dialyzed FBS, 0.19 µM	102	102	105
RPMI 5 mM glucose + 10% dialyzed FBS, 0.569 µM	95.3	131	106
RPMI 5 mM glucose + 10% dialyzed FBS, 1.71 µM	91.1	116	103
RPMI 5 mM glucose + 10% dialyzed FBS, 5.12 µM	81	115	106
RPMI 5 mM glucose + 10% dialyzed FBS, 15.4 µM	63.1	119	109
RPMI 5 mM glucose + 10% dialyzed FBS, 46.1 µM	3.65	122	77.7

AUC of viability dose-response curve
Conditions	HPLM + 10% dialyzed FBS	RPMI 5 mM glucose + 10% FBS	RPMI 5 mM glucose + 10% dialyzed FBS
[4]	443	471	466
[5]	459	477	428
